# Entries after “also recorded” stand apart in the source; their conditions may differ.
# How the values were obtained:
# [1] = test system: naïve CD4+ T-cells; test: ELISPOT, naïve CD4+ T cells stimulated with anti-CD3-Ig and anti-CD28-Ig; assay type: cell-based, mouse; settings: for anti-CD3-Ig/anti-CD28-Ig-mediated IFN-γ production: 100 μM oATP combined with 50 μM NF-449 and 50 μM 5-BDBD
# Protocol: The effect of P2X7R targeting was tested by treatment with oATP during T-cell activation. […] Similarly, in a T-cell proliferation assay, CFSE-labeled naïve CD4^+ T-cells were stimulated for 4 days with 0.5 μg/ml anti-CD3-Ig and anti-CD28-Ig; treatment with 100 μM oATP diminished CD4^+ T-cell proliferation (FIG. 5B, right panel) compared to controls (FIG. 5B, left panel).
# To address the mechanisms underlying P2X7R targeting mediated inhibition of cardiac transplant rejection, the inventors analyzed the effect of P2X7R targeting on T-cell activation and Th1/Th17 differentiation in vitro. […] The effect of in vitro P2X7R targeting with oATP during CD4+ T-cell activation was tested. […] Second, in a T-cell proliferation assay, carboxyfluorescein diacetate succinimidyl ester-labeled naïve CD4+ T cells were stimulated for 96 hours with 0.5 μg/mL anti-CD3-Ig and anti-CD28-Ig, and treatment with 100 μM oATP diminished CD4+ T cell proliferation in comparison with controls. […] The inventors next tested the effect of in vitro P2X7R targeting during a Th1/Th17 generation and differentiation assay. […] P2X7R targeting with oATP inhibited Th0 conversion into both Th1 and Th17, as assessed by the percentage of IFN-γ+ and IL-17+ cells, respectively. The inventors show, therefore, that P2X7R targeting through oATP suppresses activation, proliferation, and Th1/Th17 differentiation of CD4+ T cells. The inventors then further investigated the role of P2X7R on T-cell activation and Th1/Th17 differentiation by genetic upregulation of P2X7R. P2X7R cDNA was transduced by using a pMY-IRES-GFP retroviral vector into CD4+ T cells (pmY-P2X7R CD4+ T cells), and upregulation of P2X7R expression was confirmed by Western blot. pmY-P2X7R CD4+ T cells were then challenged with anti-CD3-Ig/anti-CD28-Ig stimulation in an ELISPOT assay. […] In a Th1/Th17 generation assay, pmY-P2X7R CD4+ T cells seemed to display increased differentiation capacity in comparison with pmY-mock CD4+ T cells, as assessed by T-bet and ROR-γ expression.
# (§1) Several key components of T-cell receptor signaling involved in the alloimmune response were examined, and the phosphorylation kinetics following in vitro anti-CD3-Ig/anti-CD28-Ig-mediated CD4+ T-cell activation was evaluated by using the Luminex assay. […] The inventors first confirmed that Colivelin (Col) was able to restore the activation-induced phosphorylation of STAT3 in a dose-dependent manner in oATP-treated CD4+ T cells by Western blotting. […] The effect of oATP and Colivelin on STAT3 phosphorylation and T-cell function was also evaluated following cardiac transplantation.
# [2] = test system: CD4+ and CD8+ T cells; test: IFN-γ production of CD4+ and CD8+ T cells with Bz-ATP; assay type: cell-based, mouse
# [3] = test system: PBMCs obtained from healthy control subjects; test: ELISPOT, human PBMCs challenged with allogeneic irradiated PBMCs; assay type: cell-based
# [4] = test system: C57BL/6 splenocytes; test: In vitro alloimmune ELISPOT, C57BL/6 responder splenocytes vs irradiated BALB/c splenocytes; assay type: cell-based, mouse; settings: selective P2X1R / P2X3R inhibitors
# Excerpt: The effect of increasing doses of oATP on Th1/Th17 cytokine levels was next tested. A dose-dependent response was evident, in which oATP reduced the number of cells producing Th1 cytokines (IFN-γ and IL-2) and Th17 cytokines (IL-6 and IL-17). Because it has been reported that oATP may affect other P2XRs, the inventors made use of the availability of the selective P2X1R inhibitor NF 449 and of the selective P2X3R inhibitor NF 110. C57BL/6 splenocytes were stimulated with irradiated BALB/c splenocytes, and IFN-γ production was evaluated in the presence of these inhibitors.
# [5] = test system: C57BL/6 mice transplanted with BALB/c islets; test: Allogeneic islet transplantation, BALB/c islets into diabetic C57BL/6 mice: graft survival; assay type: in vivo, mouse; settings: oATP daily i.p. 14-15 days, rapamycin 0.1 mg/kg 10 days
# [6] = test system: B6 recipients of BALB/c lung allografts; test: Mouse orthotopic lung transplant, BALB/c donor and C57BL/6 recipient; assay type: in vivo
# Protocol: Orthotopic left lung transplants were performed as previously described {Bizargity, #22; Iken, #21}. Briefly, donor mice were anesthetized with ketamine and xylazine, intubated with a 22 G Angiocath, and ventilated with isoflurane/oxygen. Lungs were flushed with ice cold phosphate buffered saline, left lung harvested and cuffs placed in the pulmonary artery, pulmonary vein and bronchus. Recipient mice were anesthetized and ventilated with isoflurane/oxygen, and left lung transplants performed via a thoracotomy and implantation of the three-cuffed hilar structures. Transplanted lungs were harvested 15 to 60-70 days following transplantation.
# Allografts were evaluated 15, 30, and 60-70 days after transplant.
# Outcome Measures—In vivo assessment of transplanted lung function was performed by thoracic CT scan imaging and measuring peak airway pressures (PawP) as previously described {Bizargity, #22}. […] Flow cytometry and enzyme-linked immunosorbent spot assay (ELISPOT) for interferon (IFN)-γ and interleukin (IL)-4 were performed as previously described {Vergani, #25; Vergani, #9}.
# [7] = test system: STAT3; test: Phosphorylation of T-cell signaling molecules in activated CD4+ T cells (Luminex/Milliplex, Western blot); assay type: cell-based, mouse; settings: Colivelin add-back, Western blot
# Protocol: 60 minutes after anti-CD3-Ig and anti-CD28-Ig mediated activation, cells were lysed and the phosphorylation status of CREB, Erk, Akt, JNK, p38, p70 S6 Kinase, STAT3, and STAT5A/B was assessed using the Millipore Milliplex Cell Signaling Assay. […] Data were confirmed by western blot (FIG. 6D).
# as §1
# [8] = test system: C57BL/6 mice transplanted with BALB/c hearts; assay type: in vivo, mouse; settings: oATP-treated cardiac-transplanted mice
# Protocol: The effect of P2X7R targeting in preventing cardiac transplant rejection was tested using the P2X7R inhibitor oATP.
# The effect of P2X7R targeting in preventing cardiac transplant rejection was tested by using the P2X7R inhibitor oATP.
# [9] = test system: STAT3; test: STAT3 phosphorylation in CD4+ T cells of cardiac-transplanted mice (Western blot); assay type: in vivo, mouse; settings: 7 days after transplantation
# Protocol: as §1
compound,measurement,setting,value
O=C1CN=C(c2cccc(Br)c2)c2oc3ccccc3c2N1 [5-BDBD],anti-CD3-Ig/anti-CD28-Ig-mediated IFN-γ production,[1],further suppression
"Nc1ncnc2c1ncn2[C@@H]1O[C@H](COP(=O)(O)OP(=O)(O)OP(=O)(O)O)[C@@H](OC(=O)c2ccc(C(=O)c3ccccc3)cc2)[C@H]1O [Bz-ATP, benzoyl-ATP]",IFN-γ production,"[2]; 1 mmol/L Bz-ATP, T cells from wildtype mice",increased
same,IFN-γ production,[2]; T cells from P2X7R2/2 mice,similarly stimulated
COC[C@H](O)Cn1c(=O)cnn(-c2ccc(Cl)c(C(=O)NCC3(O)CCCCCC3)c2)c1=O [CE-224535],allo- and autoimmune responses ex vivo,[3],inhibition
O=C(Nc1cc(C(=O)Nc2ccc(S(=O)(=O)O)cc2)cc(C(=O)Nc2ccc(S(=O)(=O)O)cc2)c1)Nc1cc(C(=O)Nc2ccc(S(=O)(=O)O)cc2)cc(C(=O)Nc2ccc(S(=O)(=O)O)cc2)c1 [NF 110],alloantigen-mediated IFN-γ production,[4],failed to modulate
O=C(Nc1cc(C(=O)Nc2ccc(S(=O)(=O)O)cc2S(=O)(=O)O)cc(C(=O)Nc2ccc(S(=O)(=O)O)cc2S(=O)(=O)O)c1)Nc1cc(C(=O)Nc2ccc(S(=O)(=O)O)cc2S(=O)(=O)O)cc(C(=O)Nc2ccc(S(=O)(=O)O)cc2S(=O)(=O)O)c1 [NF 449],alloantigen-mediated IFN-γ production,[4],failed to modulate
same,anti-CD3-Ig/anti-CD28-Ig-mediated IFN-γ production,[1],further suppression
CO[C@H]1C[C@@H]2CC[C@@H](C)[C@@](O)(O2)C(=O)C(=O)N2CCCC[C@H]2C(=O)O[C@H]([C@H](C)C[C@@H]2CC[C@@H](O)[C@H](OC)C2)CC(=O)[C@H](C)/C=C(\C)[C@@H](O)[C@@H](OC)C(=O)[C@H](C)C[C@H](C)/C=C/C=C/C=C/1C [Rapamycin],islet allograft mean survival time (MST),[5],19 days
same,islet allograft mean survival time (MST),[5]; listed as rapamycin,18 days
Cc1ccc(C(=O)Nc2ccc(S(=O)(=O)O)c3cc(S(=O)(=O)O)cc(S(=O)(=O)O)c23)cc1NC(=O)c1cccc(NC(=O)Nc2cccc(C(=O)Nc3cc(C(=O)Nc4ccc(S(=O)(=O)O)c5cc(S(=O)(=O)O)cc(S(=O)(=O)O)c45)ccc3C)c2)c1 [suramin],acute cellular rejection (ACR grade),"[6]; 15, 30 and ≥60 days after transplantation",reduction
same,lung function (PawP),[6]; 15 to ≥60 days,improved
Colivelin,activation-induced phosphorylation of STAT3 in oATP-treated CD4+ T cells,[7],restore
same,effect of Colivelin on oATP-mediated allograft survival,[8],greatly abrogated the effect of oATP
same,phosphorylated STAT3 in CD4+ T cells,[9],reestablish STAT3 phosphorylation
same,reversal of oATP-mediated suppression of IFN-γ-producing cells,[1]; Colivelin added to oATP-treated cells,significantly revert; also recorded: partially reverted
